Assays:
[1] = Microsomal stability in Beagle dog liver microsome assessed as intrinsic clearance measured upto 60 mins in presence of NADPH and UDPGA by HPLC-MS/MS analysis; format: ADME, Canis lupus familiaris; conditions: liver microsomes, read-out: CLH
[2] = Half life in rat at 20 mg/kg, iv by LC-MS/MS analysis; format: ADME, organism-based; conditions: in vivo
[3] = Microsomal stability in human liver microsome assessed as intrinsic clearance measured upto 60 mins in presence of NADPH and UDPGA by HPLC-MS/MS analysis; format: ADME; conditions: liver microsomes, read-out: CLH
[4] = Microsomal stability in monkey liver microsome assessed as half life measured upto 60 mins in presence of NADPH and UDPGA by HPLC-MS/MS analysis; format: ADME, Macaca mulatta; conditions: rhesus monkey, liver microsomes
[5] = molecular target: T1, Androgen receptor (Homo sapiens, UniProt P10275); assay: Antagonist activity at Androgen receptor in human LNCaP cells transfected with ARR2PB-eGFP incubated for 3 days by synergy H1 microplate reader analysis; format: cell-based
T1 sequence (P10275 whole entry): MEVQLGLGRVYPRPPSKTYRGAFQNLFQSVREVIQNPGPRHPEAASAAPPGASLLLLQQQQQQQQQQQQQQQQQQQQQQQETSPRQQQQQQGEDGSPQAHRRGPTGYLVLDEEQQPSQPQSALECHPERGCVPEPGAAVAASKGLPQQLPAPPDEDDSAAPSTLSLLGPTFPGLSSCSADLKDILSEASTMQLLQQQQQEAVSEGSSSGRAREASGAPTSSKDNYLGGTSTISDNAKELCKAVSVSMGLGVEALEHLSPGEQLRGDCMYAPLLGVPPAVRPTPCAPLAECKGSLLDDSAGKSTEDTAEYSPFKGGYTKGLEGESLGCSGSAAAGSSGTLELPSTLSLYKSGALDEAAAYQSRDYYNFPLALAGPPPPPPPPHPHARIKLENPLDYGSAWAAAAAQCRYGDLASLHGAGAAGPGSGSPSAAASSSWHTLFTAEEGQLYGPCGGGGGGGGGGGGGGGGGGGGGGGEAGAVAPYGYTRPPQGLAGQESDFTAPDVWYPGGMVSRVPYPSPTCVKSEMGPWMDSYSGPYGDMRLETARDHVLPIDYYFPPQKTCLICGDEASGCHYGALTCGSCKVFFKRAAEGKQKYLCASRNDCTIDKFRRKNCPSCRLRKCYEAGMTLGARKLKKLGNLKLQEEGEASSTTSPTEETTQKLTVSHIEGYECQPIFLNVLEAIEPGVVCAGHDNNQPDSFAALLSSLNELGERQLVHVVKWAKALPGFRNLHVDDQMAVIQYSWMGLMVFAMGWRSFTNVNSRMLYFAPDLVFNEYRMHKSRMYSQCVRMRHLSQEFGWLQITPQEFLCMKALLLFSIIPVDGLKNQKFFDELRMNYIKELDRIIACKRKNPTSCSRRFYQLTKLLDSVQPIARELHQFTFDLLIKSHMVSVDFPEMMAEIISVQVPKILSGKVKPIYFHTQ

[6] = Microsomal stability in rat liver microsome assessed as intrinsic clearance measured upto 60 mins in presence of NADPH and UDPGA by HPLC-MS/MS analysis; format: ADME; conditions: liver microsomes, read-out: CLH
[7] = Oral bioavailability in rat at 20 mg/kg by LC-MS/MS analysis; format: ADME, organism-based; conditions: in vivo
[8] = AUC (0 to infinity) in rat at 20 mg/kg, iv by LC-MS/MS analysis; format: ADME, organism-based; conditions: in vivo
[9] = Microsomal stability in monkey liver microsome assessed as parent compound remaining at 60 mins in presence of NADPH and UDPGA by HPLC-MS/MS analysis; format: ADME, Macaca mulatta; conditions: rhesus monkey, liver microsomes, read-out: Stability
[10] = Observed apparent volume of distribution during terminal phase in rat at 20 mg/kg, iv by LC-MS/MS analysis; format: ADME, organism-based; conditions: in vivo
[11] = MRTlast in rat at 20 mg/kg, iv by LC-MS/MS analysis; format: ADME, organism-based; conditions: in vivo
[12] = molecular target: Androgen receptor (Homo sapiens, UniProt P10275, W742C); assay: Antagonist activity at Androgen receptor W742C mutant in human HEK293T cells cotransfected with MMTV-luc and renilla plasmid incubated for 24 hrs by Dual luciferase assay; format: cell-based
[13] = Microsomal stability in rat liver microsome assessed as half life measured upto 60 mins in presence of NADPH and UDPGA by HPLC-MS/MS analysis; format: ADME; conditions: liver microsomes
[14] = Acute toxicity in po dosed male CB17.SCID mouse implanted with human LNCaP cells assessed as body weight loss measured within 14 days; format: organism-based; conditions: in vivo, time 14 day
[15] = Microsomal stability in mouse liver microsome assessed as half life measured upto 60 mins in presence of NADPH and UDPGA by HPLC-MS/MS analysis; format: ADME; conditions: liver microsomes
[16] = Microsomal stability in Beagle dog liver microsome assessed as parent compound remaining at 60 mins in presence of NADPH and UDPGA by HPLC-MS/MS analysis; format: ADME, Canis lupus familiaris; conditions: liver microsomes, read-out: Stability
[17] = Microsomal stability in mouse liver microsome assessed as parent compound remaining at 60 mins in presence of NADPH and UDPGA by HPLC-MS/MS analysis; format: ADME; conditions: liver microsomes, read-out: Stability
[18] = Tmax in rat at 20 mg/kg, po by LC-MS/MS analysis; format: ADME, organism-based; conditions: in vivo
[19] = Observed apparent volume of distribution during terminal phase in rat at 20 mg/kg, po by LC-MS/MS analysis; format: ADME, organism-based; conditions: in vivo, read-out: Vz/F_obs
[20] = AUC (0 to t) in rat at 20 mg/kg, iv by LC-MS/MS analysis; format: ADME, organism-based; conditions: in vivo
[21] = Cmax in rat at 20 mg/kg, iv by LC-MS/MS analysis; format: ADME, organism-based; conditions: in vivo
[22] = Microsomal stability in mouse liver microsome assessed as intrinsic clearance measured upto 60 mins in presence of NADPH and UDPGA by HPLC-MS/MS analysis; format: ADME; conditions: liver microsomes, read-out: CLH
[23] = Observed apparent oral clearance in rat at 20 mg/kg, po by LC-MS/MS analysis; format: ADME, organism-based; conditions: in vivo
[24] = Toxicity in male CB17.SCID mouse implanted with human LNCaP cells assessed as body weight loss at 40 mg/kg, po measured upto 30 days; format: organism-based; conditions: in vivo, 720 h, time < 30 day
[25] = Half life in rat at 20 mg/kg, po by LC-MS/MS analysis; format: ADME, organism-based; conditions: in vivo
[26] = Antiproliferative activity against human WPMY-1 cells assessed as reduction in cell viability upto 2 uM incubated for 3 days by MTT assay; format: toxicity, cell-based; conditions: wpmy-1, 72 h, time 3 day
[27] = Microsomal stability in Beagle dog liver microsome assessed as half life measured upto 60 mins in presence of NADPH and UDPGA by HPLC-MS/MS analysis; format: ADME, Canis lupus familiaris; conditions: liver microsomes
[28] = molecular target: hERG (KCNH2) (Homo sapiens, UniProt Q12809); assay: Inhibition of hERG at 10 uM relative to control; format: toxicity
[29] = Cmax in rat at 20 mg/kg, po by LC-MS/MS analysis; format: ADME, organism-based; conditions: in vivo
[30] = Observed apparent oral clearance in rat at 20 mg/kg, iv by LC-MS/MS analysis; format: ADME, organism-based; conditions: in vivo
[31] = test system: NIH3T3; assay: Antiproliferative activity against mouse 3T3 cells assessed as reduction in cell viability incubated for 3 days by MTT assay; format: toxicity, cell-based; conditions: nih3t3, 72 h, time 3 day

Sequence of Androgen receptor (Homo sapiens, UniProt P10275, W742C) (P10275 whole entry W742C): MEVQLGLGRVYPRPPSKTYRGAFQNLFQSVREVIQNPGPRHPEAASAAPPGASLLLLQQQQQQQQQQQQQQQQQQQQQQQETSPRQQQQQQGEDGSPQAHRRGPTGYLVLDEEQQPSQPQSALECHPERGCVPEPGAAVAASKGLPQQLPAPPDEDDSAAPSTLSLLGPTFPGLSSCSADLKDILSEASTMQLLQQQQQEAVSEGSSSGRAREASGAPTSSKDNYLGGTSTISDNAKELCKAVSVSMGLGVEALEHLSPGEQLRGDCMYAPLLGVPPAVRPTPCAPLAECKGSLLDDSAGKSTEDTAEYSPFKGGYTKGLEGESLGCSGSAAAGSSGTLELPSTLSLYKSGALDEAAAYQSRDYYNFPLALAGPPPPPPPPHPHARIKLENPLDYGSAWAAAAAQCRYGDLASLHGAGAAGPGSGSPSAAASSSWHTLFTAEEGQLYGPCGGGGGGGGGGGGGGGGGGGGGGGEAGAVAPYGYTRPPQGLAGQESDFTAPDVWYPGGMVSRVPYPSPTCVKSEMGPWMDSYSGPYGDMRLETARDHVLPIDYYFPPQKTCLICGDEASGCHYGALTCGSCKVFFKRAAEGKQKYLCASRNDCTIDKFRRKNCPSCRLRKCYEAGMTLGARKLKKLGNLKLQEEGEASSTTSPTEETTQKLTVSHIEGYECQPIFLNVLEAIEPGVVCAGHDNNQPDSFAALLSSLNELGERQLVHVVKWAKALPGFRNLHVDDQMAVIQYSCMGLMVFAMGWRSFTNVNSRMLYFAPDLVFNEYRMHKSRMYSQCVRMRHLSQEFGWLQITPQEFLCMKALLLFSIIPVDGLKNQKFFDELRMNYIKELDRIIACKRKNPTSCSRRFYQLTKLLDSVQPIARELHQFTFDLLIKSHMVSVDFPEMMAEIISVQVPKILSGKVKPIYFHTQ
Sequence of hERG (KCNH2) (Q12809 whole entry): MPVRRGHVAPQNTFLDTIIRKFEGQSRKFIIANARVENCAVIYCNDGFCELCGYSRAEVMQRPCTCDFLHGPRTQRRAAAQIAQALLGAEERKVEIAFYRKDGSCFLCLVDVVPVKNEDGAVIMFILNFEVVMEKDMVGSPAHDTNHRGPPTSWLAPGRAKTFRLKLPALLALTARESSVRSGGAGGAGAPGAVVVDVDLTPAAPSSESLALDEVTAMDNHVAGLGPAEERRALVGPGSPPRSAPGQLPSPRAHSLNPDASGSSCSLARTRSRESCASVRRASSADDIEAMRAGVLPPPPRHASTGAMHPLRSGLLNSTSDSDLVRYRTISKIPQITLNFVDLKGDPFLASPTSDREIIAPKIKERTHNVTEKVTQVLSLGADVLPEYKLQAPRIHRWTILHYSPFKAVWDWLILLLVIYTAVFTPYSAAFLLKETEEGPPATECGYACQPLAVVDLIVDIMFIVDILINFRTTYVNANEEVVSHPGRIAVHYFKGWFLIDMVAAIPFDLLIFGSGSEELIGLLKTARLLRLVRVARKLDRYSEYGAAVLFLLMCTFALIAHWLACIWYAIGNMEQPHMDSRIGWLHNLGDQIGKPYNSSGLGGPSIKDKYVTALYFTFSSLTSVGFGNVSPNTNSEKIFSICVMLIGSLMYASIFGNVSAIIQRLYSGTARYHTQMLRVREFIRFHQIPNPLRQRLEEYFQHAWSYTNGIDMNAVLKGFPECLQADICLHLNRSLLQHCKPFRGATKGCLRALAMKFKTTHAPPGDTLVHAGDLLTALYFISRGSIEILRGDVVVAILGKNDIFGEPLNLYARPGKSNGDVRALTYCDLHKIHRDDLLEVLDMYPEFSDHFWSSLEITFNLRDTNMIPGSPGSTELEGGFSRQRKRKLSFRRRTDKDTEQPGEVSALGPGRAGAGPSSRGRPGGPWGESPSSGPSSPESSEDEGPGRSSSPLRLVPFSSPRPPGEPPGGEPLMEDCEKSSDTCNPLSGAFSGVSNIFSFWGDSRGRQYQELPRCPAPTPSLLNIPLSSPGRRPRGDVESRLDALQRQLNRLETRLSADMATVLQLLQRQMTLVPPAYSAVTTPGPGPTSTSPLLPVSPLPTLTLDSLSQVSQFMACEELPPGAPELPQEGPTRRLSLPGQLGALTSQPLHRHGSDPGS

Cc1oc(-c2cccc(C(F)(F)F)c2)cc1C(=O)Nc1nc(CN2CCOCC2)ns1
microsomal CLint [1]: 31.5 µL/min/mg
half-life [2]: 7.84 h
microsomal CLint [3]: 18.7 µL/min/mg
half-life [4]: 1.58 h
IC50 [5]: 18 nM
microsomal CLint [6]: 23.4 µL/min/mg
bioavailability [7]: 61.5%
AUC(0-inf) [8]: 35800 ng·h/mL
remaining at 1 h [9]: 55.1%
Vz/F_obs [10]: 6.8 L/kg
MRT last [11]: 6 h
IC50 [12]: 240 nM
half-life [13]: 0.494 h
LD50 at 336 h [14]: 1250 mg/kg
half-life [15]: 0.642 h
remaining at 1 h [16]: 12.6%
remaining at 1 h [17]: 32.3%
Tmax [18]: 3.33 h
Vd/F [19]: 11.1 L/kg
AUC(0-t) [20]: 32000 ng·h/mL
Cmax [21]: 8450 ng/mL
microsomal CLint [22]: 18 µL/min/mg
CL/F [23]: 17.3 mL/min/kg
Activity [24]: Non-toxic
half-life [25]: 6.86 h
Activity [26]: Non-toxic
half-life [27]: 0.367 h
inhibition at 10 µM [28]: 20.7%
Cmax [29]: 1880 ng/mL
CL/F [30]: 10.2 mL/min/kg
Activity [31]: Non-toxic
